Like-named read-outs stand apart in the source and are kept apart here.
Tests used:
Type in all cases: cell-based
HTT mRNA = test: RT-qPCR splicing assay, HTT canonical (CJ) and alternative (AJ) junction mRNA; conditions: Homo sapiens; for IC50: read-out: HTT CJ IC50; for AC50: increase in alternative junction mRNA, read-out: HTT AJ AC50
Experimental: (§1) Compounds described herein were used to modulate RNA transcript abundance in cells. The expression of a target mRNA was measured by detecting the formation of an exon-exon junction in the canonical transcript (CJ). A compound mediated exon-inclusion event was detected by observing an increase in formation of a new junction with an alternative exon (AJ). Real-time qPCR assays were used to detect these splicing switches and interrogate the potency of various compounds towards different target genes. A high-throughput real time quantitative PCR (RT-qPCR) assay was developed to measure these two isoforms of the mRNA (CJ and AJ) for exemplary genes, such as HTT, SMN2, and MYB, together with a control housekeeping gene, GAPDH or GUSB or PPIA, used for normalization. Briefly, the A673 or K562 cell line was treated with various compounds described herein (e.g., compounds of Formula (I)). After treatment, the levels of the HTT, MYB, or SMN2 mRNA targets were determined from each sample of cell lysate by cDNA synthesis followed by qPCR.
(§2) • Cells-to-CT 1-step kit: ThermoFisher A25602, Cells-to-CT lysis reagent: ThermoFisher 4391851C, TaqMan™ Fast Virus 1-Step Master Mix: ThermoFisher 4444436 • GAPDH: VIC-PL, ThermoFisher 4326317E (Assay: Hs99999905_m1)—used for K562/suspension cell lines • GUSB: VIC-PL, ThermoFisher 4326320E (Assay: Hs99999908_m1)—used for K562/suspension cell lines • PPIA: VIC-PL, ThermoFisher 4326316E (Assay: Hs99999904_m1)—used for A673/adherent cell lines
(§3) The A673 cell line was cultured in DMEM with 10% FBS. Cells were diluted with full growth media and plated in a 96-well plate (15,000 cells in 100 ul media per well). The plate was incubated at 37° C. with 5% CO2 for 24 hours to allow cells to adhere. An 11-point 3-fold serial dilution of the compounds was made in DMSO then diluted in media in an intermediate plate. Compounds were transferred from the intermediate plate to the cell plate with the top dose at a final concentration of 10 uM in the well. Final DMSO concentration was kept at or below 0.25%. The cell plate was returned to the incubator at 37° C. with 5% CO2 for an additional 24 hours.
(§4) The K562 cell line was cultured in IMDM with 10% FBS. For K562, cells were diluted with full growth media and plated in either a 96-well plate (50,000 cells in 50 uL media per well) or a 384-well plate (8,000-40,000 cells in 45 uL media per well). An 11-point 3-fold serial dilution of the compounds were made in DMSO then diluted in media in an intermediate plate. Compound was transferred from the intermediate plate to the cell plate with the top dose at a final concentration of 10 uM in the well. Final DMSO concentration was kept at or below 0.25%. Final volume was 100 uL for 96-well plate and 50 uL for 384-well plate. The cell plate was then placed in an incubator at 37° C. with 5% CO2 for 24 hours.
(§5) The cells were then gently washed with 50 uL-100 uL cold PBS before proceeding to addition of lysis buffer. 30 uL-50 μL of room temperature lysis buffer with DNAse I (and optionally RNAsin) was added to each well. Cells were shaken/mixed thoroughly at room temperature for 5-10 minutes for lysis to take place and then 3 uL-5 μL of room temperature stop solution was added and wells were shaken/mixed again. After 2-5 minutes, the cell lysate plate was transferred to ice for RT-qPCR reaction setup. The lysates could also be frozen at −80° C. for later use.
(§6) In some cases, a direct lysis buffer was used. An appropriate volume of 3× lysis buffer (10 mM Tris, 150 mM NaCl, 1.5%-2.5% Igepal and 0.1-1 U/uL RNAsin, pH 7.4) was directly added to either K562 or A673 cells in media and mixed by pipetting 3 times. The plates were then incubated at room temperature with shaking/rocking for 20-50 minutes to allow for lysis to take place. After this time, the cell lysate plate was transferred to ice to set up for the RT-qPCR reactions. The lysates could also be frozen at −80° C. for later use. […]

MYB mRNA = test: RT-qPCR splicing assay, MYB canonical (CJ) and alternative (AJ) junction mRNA; conditions: Homo sapiens; for IC50: read-out: MYB CJ IC50; for AC50: increase in alternative junction mRNA, read-out: MYB AJ AC50
Experimental: as §1, §2, §3, §4, §5, §6

Target C = test: RT-qPCR splicing assay, gene panel, Target C canonical junction (CJ) mRNA; conditions: Homo sapiens; decrease in CJ mRNA levels; larger panel of genes; Table 3; read-out: Target C CJ IC50
Experimental: as §1, §3, §4, §5
(§7) In some cases, a direct lysis buffer was used. An appropriate volume of 3× lysis buffer (10 mM Tris, 150 mM NaCl, 1.5%-2.5% Igepal and 0.1-1 U/uL RNAsin, pH 7.4) was directly added to either K562 or A673 cells in media and mixed by pipetting 3 times. The plates were then incubated at room temperature with shaking/rocking for 20-50 minutes to allow for lysis to take place. After this time, the cell lysate plate was transferred to ice to set up for the RT-qPCR reactions. The lysates could also be frozen at −80° C. for later use.
(§8) To set up 10 uL RT-qPCR reactions, cell lysates were transferred to 384-well qPCR plates containing the master mix according to the table below. The plates were sealed, gently vortexed, and spun down before the run. The volumes were adjusted accordingly in some instances where the reaction was carried in 20 μL. The table below summarizes the components of the RT-qPCR reactions:
(§9) The RT-qPCR reaction was performed using a QuantStudio (ThermoFisher) under the following fast cycling conditions. […]

SMN2 mRNA = test: RT-qPCR splicing assay, gene panel, SMN2 canonical junction (CJ) mRNA; conditions: Homo sapiens; decrease in CJ mRNA levels; larger panel of genes; Table 3; read-out: SMN2 CJ IC50
Experimental: as §1, §3, §4, §5, §7, §8, §9

K562 cells = test: Cell Titer Glo 2.0 cell viability assay; conditions: Homo sapiens, 500 cells/well, 72 hours
Experimental: Compounds described herein were screened for toxicity in K562 (human chronic myelogenous leukemia) and SH-SY5Y (human neuroblastoma) cells using a Cell Titer Glo 2.0 assay. • Promega CellTiter-Glo® 2.0 Cell Viability Assay (cat #G9241) • Corning 384-well TC-treated microplates (cat #3570) Cells were plated at 500 cells/well (K562 cells) in 45 μL of IMDM supplemented with 10% FBS in a 384-well opaque plate. Wells containing only medium were used as a blank control. Test compounds (e.g., compounds of Formula (I), (II), or (III)) were first serially diluted in DMSO then diluted 1:100 with IMDM+10% FBS. The final concentration of DMSO was 0.1% in each well. The cells were incubated for 72 hours at 37° C. and 5% CO2 before assaying with Cell Titer Glo 2.0 reagent.

[1] = decrease in CJ mRNA levels, larger panel of genes, Table 3
[2] = decrease in canonical junction mRNA, A673 or K562 cells, 24 hours treatment, Table 2
[3] = A673 or K562 cells, 24 hours treatment, Table 2

SMILES | IC50 (HTT mRNA; [1]) [nM] | IC50 (HTT mRNA; [2]) [nM] | IC50 (MYB mRNA; [1]) [nM] | IC50 (MYB mRNA; [2]) [nM] | IC50 (Target C) [nM] | IC50 (SMN2 mRNA) [nM] | GI50 (K562 cells) [nM] | AC50 (HTT mRNA; [3]) [nM] | AC50 (MYB mRNA; [3]) [nM]
Cc1cn2nc(-c3cc(F)c4nn([C@H]5CCN(C)C[C@@H]5F)cc4c3)cc(C)c2n1 [Compound 196, 6-[7-fluoro-2-[(3S,4S)-3-fluoro-1-methyl-4-piperidyl]indazol-5-yl]-2,8-dimethyl-imidazo[1,2-b]pyridazine] | 1000 to 10000 | 1000 to 10000 | > 10000 | > 10000 | > 10000 | 100 to 1000 | > 10000 | 1000 to 10000 | 1000 to 10000
Cc1cn2nc(-c3cc(F)c4nn([C@@H]5CCN(C)C[C@H]5F)cc4c3)cc(C)c2n1 [Compound 197, 6-(7-fluoro-2-((3R,4R)-3-fluoro-1-methylpiperidin-4-yl)-2H-indazol-5-yl)-2,8-dimethylimidazo[1,2-b]pyridazine] | 100 to 1000 | 100 to 1000 | 1000 to 10000 | 1000 to 10000 | 1000 to 10000 | 100 to 1000 | 1000 to 10000 | 100 to 1000 | 1000 to 10000
CCN1CCC(n2cc3cc(-c4cc(C)c5nc(C)cn5n4)cc(F)c3n2)CC12CCC2 (stereo not drawn) [Compound 198, 6-[2-(5-ethyl-5-azaspiro[3.5]nonan-8-yl)-7-fluoro-indazol-5-yl]-2,8-dimethyl-imidazo[1,2-b]pyridazine] | < 100 | < 100 | 100 to 1000 | 100 to 1000 | < 100 | < 100 | 100 to 1000 | < 100 | 100 to 1000
Cc1cn2nc(-c3ccc4nn(C5CCNC6(CC6)C5)cc4n3)cc(C)c2n1 (stereo not drawn) [Compound 201, 6-[2-(4-azaspiro[2.5]octan-7-yl)pyrazolo[4,3-b]pyridine-5-yl]-2,8-dimethyl-imidazo[1,2-b]pyridazine] | 100 to 1000 | 100 to 1000 | 1000 to 10000 | 1000 to 10000 | 1000 to 10000 | 100 to 1000 | 1000 to 10000 | 1000 to 10000 | 1000 to 10000
Cc1cn2nc(-c3cc(F)c4nn(C5CCN(C(C)(C)C)CC5)cc4c3)cc(C)c2n1 [Compound 207, 2-(1-tert-butylpiperidin-4-yl)-5-{2,8-dimethylimidazo[1,2-b]pyridazin-6-yl}-7-fluoroindazole] | 100 to 1000 | 100 to 1000 | 100 to 1000 | 100 to 1000 | 1000 to 10000 | < 100 | – | 100 to 1000 | 100 to 1000
Cc1cn2nc(-c3cc(C)c4nn(C5CCNC6(CC6)C5)cc4n3)cc(C)c2n1 (stereo not drawn) [Compound 208, 2-(4-azaspiro[2.5]octan-7-yl)-5-(2,8-dimethylimidazo[1,2-b]pyridazin-6-yl)-7-methyl-pyrazolo[4,3-b]pyridine] | > 10000 | > 10000 | > 10000 | > 10000 | > 10000 | 1000 to 10000 | – | > 10000 | > 10000
Cc1cn2nc(-c3nc4cn(C5CCNCC5)nc4c(=O)[nH]3)cc(C)c2n1 [Compound 211, 5-(2,8-dimethylimidazo[1,2-b]pyridazin-6-yl)-2-(4-piperidyl)-6H-pyrazolo[4,3-d]pyrimidin-7-one] | < 100 | < 100 | 100 to 1000 | 100 to 1000 | – | < 100 | – | 100 to 1000 | 100 to 1000

Further lines, with some results ahead:

IC50 (HTT mRNA; [1]) [nM] | IC50 (HTT mRNA; [2]) [nM] | IC50 (MYB mRNA; [1]) [nM] | IC50 (MYB mRNA; [2]) [nM] | IC50 (Target C) [nM] | IC50 (SMN2 mRNA) [nM] | GI50 (K562 cells) [nM] | SMILES | AC50 (HTT mRNA; [3]) [nM] | AC50 (MYB mRNA; [3]) [nM]
100 to 1000 | 100 to 1000 | 1000 to 10000 | 1000 to 10000 | 1000 to 10000 | 100 to 1000 | 1000 to 10000 | Cc1cn2nc(-c3cc(F)c4nn(C5CCNC6(CC6)C5)cc4c3)cc2c(C)n1 (stereo in doubt) [Compound 205, 2-[2-[(7S)-4-azaspiro[2.5]octan-7-yl]-7-fluoro-indazol-5-yl]-4,6-dimethyl-pyrazolo[1,5-a]pyrazine] | 100 to 1000 | 100 to 1000
< 100 | < 100 | 100 to 1000 | 100 to 1000 | 100 to 1000 | 100 to 1000 | 100 to 1000 | Cc1cn2nc(-c3cc(F)c4nn(C5CCNC6(CC6)C5)cc4c3)cc2c(C)n1 (stereo in doubt) [Compound 206, 2-[2-[(7R)-4-azaspiro[2.5]octan-7-yl]-7-fluoro-indazol-5-yl]-4,6-dimethyl-pyrazolo[1,5-a]pyrazine] | 100 to 1000 | 100 to 1000
< 100 | < 100 | 100 to 1000 | 100 to 1000 | < 100 | – | 100 to 1000 | Cc1cn2nc(-c3cc(F)c4nn([C@H]5CCN(C)C6(CC6)C5)cc4c3)cc(C)c2n1 [Compound 175, 6-[7-fluoro-2-[(7S)-4-methyl-4-azaspiro[2.5]octan-7-yl]indazol-5-yl]-2,8-dimethyl-imidazo[1,2-b]pyridazine] | < 100 | < 100
< 100 | < 100 | 100 to 1000 | 100 to 1000 | 100 to 1000 | – | 100 to 1000 | Cc1cn2nc(-c3cc(F)c4nn([C@@H]5CCN(C)C6(CC6)C5)cc4c3)cc(C)c2n1 [Compound 176, 6-[7-fluoro-2-[(7R)-4-methyl-4-azaspiro[2.5]octan-7-yl]indazol-5-yl]-2,8-dimethyl-imidazo[1,2-b]pyridazine] | < 100 | 1000 to 10000

From patent US20250082633A1, “COMPOUNDS AND METHODS FOR MODULATING SPLICING” (REMIX THERAPEUTICS INC., priority 2021, published 2025)
